# Results taken from US11472807B2, “Purine derivatives for use as medicament and for use in treating neurodegenerative or neuro-inflammatory disorders” (COMMISSARIAT À L'ENERGIE ATOMIQUE ET AUX ENERGIES …, priority 2017, dated 2022).
# Key:
# [1] = tested on: IL-6 cytokine; assay: Secreted IL-6 in LPS-treated human primary glial cells (MSD ELISA); assay type: cell-based; conditions: LPS 6 h, then purine derivative 10 μM for 18 h
# Experimental: For assessing the cytokine production, human primary glial cells were grown until confluent on coated collagen 12-well plates. Cells were serum-starved in glial serum-free medium for 2 h and treated with LPS for 6 h before treatment with purine derivatives (10 μM) for an additional 18 h. Supernatants were harvested and secreted IL-6 cytokine was measured by ELISA by the mean of the Meso Scale Discovery (MSD) technology. Briefly, a 96-well plate having 1 spot pre-coated with the corresponding antibody is provided by MSD Technology. Before adding the samples, a first saturation step is required. Once the plate is saturated and washed, 25 μL of sample (or calibrators) per well are loaded and incubated for 1 hour. Then the plate is washed and incubated with 25 μL of the Detection Antibody solution (MSD SULFO-TAG) for 1 hour. At the end of the incubation, the plate is washed and then a chemical solution (Read buffer 1×) is added allowing electrochemiluminescence. After a short incubation (5 min) at room temperature, the plate is read on the QUICK Plex SQ120. The instrument measures the intensity of the light electrochemiluminescence.
# [2] = tested on: amyloid precursor protein (APP); assay: APP protein expression in neuronal primary cultures (Western blot); assay type: cell-based; conditions: hippocampal neurons, 100 μM, 18 h
# Experimental: FIG. 8. Plots illustrating the effect of Aftin-5 on APP protein expression in neuronal primary cultures. Culture medium of hippocampal neurons was replaced by incubation medium containing Aftin-5 (100 μM) or vehicle (0.1% DMSO). 18 h later, APP protein in lysate was quantified by Western blotting with anti-APP polyclonal antibody (Millipore). The Western blots were quantified by densitometric analysis. Relative APP protein expression was expressed (Aftin-5) as comparison with the control condition (vehicle; Ctrl). Data expressed as means+/−SEM from one experiment with n=5 wells/condition.
# Hippocampi and cortex were dissected in HBSS containing 5 mM glucose (dissection medium). […] Cells were counted and seeded at a density of 22,000 per cm^2 for hippocampal neurons and 10^5 per cm^2 for cortical neurons into 24 wells culture plates (Costar) in plating medium (DMEM medium containing 10% heat-inactivated horse serum (Life Technologies)). […]
# Cells were lysed in freshly prepared lysis buffer containing in mM: Tris-HCl 50, EDTA 2, EGTA 2, NaCl 100, SDS 0.2%, Triton X-100 1%, proteases inhibitors (Roche Protease Inhibitor Cocktail #04693116001), phosphatases inhibitors (in mM: ammonium molybdate 0.1, β-glycerophosphate 20, NaF 50, Na-pyrophosphate 10, Orthovanadate 1). Protein concentration was measured by the Bradford assay and Laemmli buffer was added to each lysate. […]
structure (smiles),measurement,setting,value
CC[C@H](CO)Nc1nc(N(C)c2ccccc2)c2ncn(C(C)C)c2n1 [Aftin-5],Anti-inflammatory Compounds (secreted IL-6),[1],+(>1 μM) (“+” means that the tested compound shows an anti-inflammatory and/or attenuation of Tau's phosphorylation property with a concentration higher than 1 μM)
same,level of APP,[2],does not change
